Reference: patent publication US12298308B2, “Neoadjuvant chemotherapy induces breast cancer metastasis through a TMEM-mediated mechanism” (Albert Einstein College of Medicine, priority 2017, dated 2025)

Tests used:
TMEM = assay: Extravascular Dextran-TMR in fixed tumor sections (multichannel IF); assay type: in vivo, mouse
Procedure: In a second independent validation experiment, a group of vehicle- or paclitaxel-treated mice received an i.v injection of Dextran-TMR for 1 hour and then sacrificed and evaluated for vascular permeability in fixed tumor sections (FIG. 2A). Multichannel IF staining included endomucin as a blood vessel exclusion mask and a specific anti-TMR antibody for assessing dextran leakage. A corresponding TMEM IHC staining section was co-aligned to evaluate the presence/absence of TMEM in each vascular profile that presented with vascular leakage. […] For quantification purposes, ˜20-30 vascular profiles were selected for each mouse, based on tissue size, degree of vascularization and quality of endomucin staining. […]
Paclitaxel Increases Metastatic Dissemination of Breast Tumors—To assess if paclitaxel treatment promotes tumor cell dissemination and metastatic incidence, we first quantified and compared incidence and frequency of bursting in mice treated with vehicle or paclitaxel, using IVI (FIGS. 3A-C). […] The same conclusions were reached when frequency of bursting was normalized to the number of TMEM sites, as measured in each field. […] In addition to IVI, extravascular dextran area was quantified and compared as % normalized to the blood vessel area in fixed tumors of mice treated with either vehicle or paclitaxel, using multichannel IF. […]

[1] = tested on: Tie2^hi/Vegf^hi macrophages; assay: Macrophage infiltration by multi-channel immunofluorescence (Iba1, Cd31, Tie2, Vegf); assay type: in vivo, mouse
Text: The functional TMEM sites contain Tie2^hi/Vegf^hi macrophages and invasive tumor cells in perivascular regions (1), and it was independently shown that chemotherapy may promote mobilization of such Tie2^hi monocyte progenitors in primary tumors (8, 10). The Tie2^hi/Vegf^hi macrophage subpopulation was quantified herein using multi-channel immunofluorescence (IF) imaging (FIGS. 1D-F) (10, 14, 34). FIG. 1E illustrates a representative IF image of a Tie2^hi/Vegf^hi macrophage quantified using Cd31, Iba1, Vegf and Tie2 staining.
Drug Administration. The following drugs were administered in mice: Paclitaxel was given at 10 mg/Kg i.v every 5 days for 2 weeks; Doxorubicin was given at 5 mg/Kg i.v. every 5 days for 2 weeks; Cyclophosphamide was given at 120 mg/Kg i.p. only once; Rebastinib was given at 10 mg/Kg per os, every 3-4 days for 4 weeks.
Animals and Animal Procedures. MMTV-PyMT mice were bred in-house at the Albert Einstein College of Medicine (AECOM). Generation of MMTV-PyMT Mena^−/− has been described previously (28). CFP- or Dendra2-labeled mammary carcinoma cells were generated on the FVB background by co-injection of Tg(MMTV-iCRE)1jwp together with Tg(PCAG-loxp-CATstop-loxp-CFP) or Tg(loxP-stop-loxP-PDendra2)jwp plasmids, respectively, by conventional methods in the Albert Einstein Transgenic Mouse Facility. All syngeneic transplantation models were generated through orthotopic transplantation of 1 mm×1 mm tumor chunks, using tumors of 1 cm-diameter from 12-16-week old MMTV-PyMT mena−/− or mena+/+ donor mice into 5-6 week-old FVB recipients. Tumor chunks were implanted on the fourth mammary pad on the left side. The generation of the ER^− HT17 and ER^+ HT33 patient-derived xenografts has been described previously (31). Animal handling and associated procedures were approved by the Institutional Animal Care and Use Committee (IACUC). Additional information is detailed in Supplementary Methods.
Immunofluorescence. Slides were deparaffinized by melting at 60° C. in an oven equipped with a fan for 20 minutes, followed by 2× xylene treatment for 20 minutes. Slides were rehydrated and antigen retrieval was done in 1 mM EDTA (pH 8.0) or 1× citrate buffer (pH 6.0) (Diagnostic BioSystems) at 97° C. for 20 minutes in a conventional steamer. Endogenous peroxidase was blocked by using 0.3% hydrogen peroxide in water, followed by incubation of slides in a blocking buffer solution (10% FBS, 1% BSA, 0.0025% fish skin gelatin in 0.05% PBST) for 60 minutes at room temperature. The following primary antibodies were used in different combinations, depending on the experiment: chicken anti-Mena^INV (0.25 ug/mL, generated in-house in the lab of John S. Condeelis), rabbit anti-Cd31 (1:400; 77699s; Cell Signaling), rabbit anti-Vegf (1:2,000; Rb 9031-PO-A; Thermo), rat anti-Tie2 (1:100; 16-5987-82; eBioscience), rabbit anti-Iba1 (1:6,000; 019-19741; Wako), rat anti-endomucin (1:500; sc-65495; Santa Cruz), rabbit anti-TMR (1:1,000; A-6397; Life Technologies). Secondary antibody treatment was performed using HRP-conjugated antibodies, and was followed by tyramide signal amplification (TSA), using the Perkin Elmer; Opal™ 4-color Fluorescent IHC kit, according to the manufacturer's directions. All slides were imaged on the Pannoramic 250 Flash II digital whole slide scanner, using a 20×0.75NA objective lens. Image analysis was performed in ImageJ, detailed in Supplementary Methods.

breast cancer = conditions: addition of paclitaxel into preoperative NAC regimen; cited from earlier work
lung metastases = assay: Lung metastasis and single cancer cell dissemination in lungs; assay type: in vivo, mouse
Text: To further determine the effect of paclitaxel on cancer cell dissemination to distant sites, we harvested lungs and evaluated metastatic foci histologically. An increase was found in both the metastatic incidence (>1 micrometastatic focus of >5 tumor cells) (FIG. 3H) and the number of cancer cell micrometastases in the lungs of paclitaxel-treated mice (FIG. 3I). In addition, we quantified single cell dissemination of breast cancer cells in the lungs of FVB-recipient mice after syngeneic transplantation of MMTV-PyMT/Dendra2^+ tumors using ex vivo microscopy, and found an approximately 2-fold increase (p<0.01) of single Dendra2^+ breast cancer cells in the lungs of paclitaxel-treated mice (FIG. 3J). Overall, data presented in this section indicate that in early-stage breast cancers chemotherapy increases vascular permeability at TMEM sites which is accompanied by increased cancer cell dissemination.
Histology and TMEM Immunohistochemistry.

[2] = Mena^-/- PyMT-CFP transplanted tumors

SMILES: CC(=O)O[C@H]1C(=O)[C@@]2(C)[C@H]([C@H](OC(=O)c3ccccc3)[C@]3(O)C[C@H](OC(=O)[C@H](O)[C@@H](NC(=O)c4ccccc4)c4ccccc4)C(C)=C1C3(C)C)[C@]1(OC(C)=O)CO[C@@H]1C[C@@H]2O [paclitaxel]
- vascular profiles with extravascular dextran co-localized with at least 1 TMEM (TMEM; fixed tumor sections, Dextran-TMR i.v. for 1 hour): 96-98%
- extravascular dextran area normalized to blood vessel area, fold vs vehicle-treated (TMEM; fixed tumors, p<0.05): 3 fold
- absolute number of Iba1^+ cells ([1]; HT17-xenograft, entire tissue or perivascular niche, p<0.001): significantly increased
- perivascular Iba1^+ macrophage infiltration [1, 2]: increased
- perivascular Tie2^hi/Vegf^hi Iba1^+ macrophage infiltration [1, 2]: increased
- perivascular Tie2^hi/Vegf^hi macrophage subpopulation ([1]; PyMT-spontaneous model): significant increase
- percentage of macrophage-specific Iba1^+ area ([1]; all transplantation models, p<0.01): significant increase
- proportion of Tie2^hi/Vegf^hi macrophages among all Iba1^+ cells ([1]; paclitaxel treatment): increased
- density of perivascular Tie2^hi/Vegf^hi macrophages ([1]; single agent vs vehicle, PyMT-transplantation and HT17 xenograft): significant increases
- density of Tie2^hi/Vegf^hi macrophages ([1]; vs vehicle-treated controls, entire tissue or perivascular niches, p<0.001): significantly higher
- overall survival (breast cancer): does not improve
- rate of pathologic complete response (pCR) (breast cancer): significantly increases
- increase of single Dendra2^+ breast cancer cells in the lungs (lung metastases; FVB recipients of MMTV-PyMT/Dendra2^+ tumors, ex vivo microscopy, p<0.01): approximately 2 fold
- disseminated cells in the lungs (lung metastases; Mena^-/- PyMT-CFP transplants): failed to boost
- metastatic incidence (>1 micrometastatic focus of >5 tumor cells) in lungs (lung metastases; histological evaluation): increase
- number of cancer cell micrometastases in the lungs (lung metastases; histological evaluation): increase
